Publication PMC11995724, “Antibiotic target discovery by integrated phenotypic and activity-based profiling of electrophilic fragments” (Cell chemical biology, 2025)
Structures can show the parent of a compound that is named as a salt.

Test: in vitro
Conditions: human, hek293t cells

Going from `Cc1oc(C(=O)O)cc1C(=O)CCl` [10-M21, 4-(2-chloroacetyl)-5-methylfuran-2-carboxylic acid] to `Cc1cc(C(=O)CCl)c(C)n1CC(N)=O` [10-O16, 2-[3-(2-chloroacetyl)-2,5-dimethyl-1H-pyrrol-1-yl]acetamide], the viability at 48 h, 25 µM rises from 91% to 108%.

Going from `c1nc(N2CCSSCC2)c2c3c(sc2n1)CCCC3` [10-M22, 3-(1,2,5-dithiazepan-5-yl)-8-thia-4,6-diazatricyclo[7.4.0.0,2,7]trideca-1(9),2,4,6-tetraene] to `O=C(Nc1nccs1)N1CCSSCC1` [10-O22, N-(1,3-thiazol-2-yl)-1,2,5-dithiazepane-5-carboxamide], the viability at 48 h, 25 µM rises from 78.3% to 113%.

Going from `CC(=O)NCCc1ccc(C(=O)CCl)cc1` [10-N03, N-{2-[4-(2-chloroacetyl)phenyl]ethyl}acetamide] to `CC(=O)Nc1ccc(C(=O)CCl)cc1` [10-O12, N-[4-(2-chloroacetyl)phenyl]acetamide], the viability at 48 h, 25 µM falls from 85.6% to 12.6%.

Going from `Cn1c(-c2ccccc2)c(C(=O)CCl)c2ccccc21` [10-N04, 2-chloro-1-(1-methyl-2-phenyl-1H-indol-3-yl)ethan-1-one] to `O=C(CCl)c1c(-c2ccc(F)cc2)[nH]c2ccccc12` [10-P04, 2-chloro-1-[2-(4-fluorophenyl)-1H-indol-3-yl]ethan-1-one], the viability at 48 h, 25 µM rises from 1.67% to 4.16%.

First: COc1ccc(C(=O)CCl)c2c1C(=O)CO2 [10-N05, 7-(2-chloroacetyl)-4-methoxy-2,3-dihydro-1-benzofuran-3-one]
Second: O=C1CCc2cc(C(=O)CCl)c(F)cc2N1 [10-O20, 6-(2-chloroacetyl)-7-fluoro-1,2,3,4-tetrahydroquinolin-2-one]
The viability at 48 h, 25 µM of the first is higher: 92.2% for the first, 11.9% for the second.

Going from `CC(C)CC(=O)Nc1ccc(C(=O)CCl)cc1` [10-N06, N-[4-(2-chloroacetyl)phenyl]-3-methylbutanamide] to `CCCC(=O)Nc1ccc(C(=O)C(C)Cl)cc1` (centres unmarked) [10-O06, N-[4-(2-chloropropanoyl)phenyl]butanamide], the viability at 48 h, 25 µM rises from 11.7% to 85.1%.

Compared with `Cc1ccc(N2C(=O)C=CC2=O)c(C)c1` [10-N07, 1-(2,4-dimethylphenyl)-2,5-dihydro-1H-pyrrole-2,5-dione], `Cc1ccc(N2C(=O)C=CC2=O)c([N+](=O)[O-])c1` [10-N13, 1-(4-methyl-2-nitrophenyl)-2,5-dihydro-1H-pyrrole-2,5-dione] is higher in viability at 48 h, 25 µM: 102% for the first, 133% for the second.

Compared with `Cc1nc(C)c(C(=O)CCl)o1` [10-N08, 2-chloro-1-(2,4-dimethyl-1,3-oxazol-5-yl)ethan-1-one], `CCn1nc(C)c(C(=O)CCl)n1` [10-P08, 2-chloro-1-(2-ethyl-5-methyl-2H-1,2,3-triazol-4-yl)ethan-1-one] is lower in viability at 48 h, 25 µM: 76.1% for the first, 27.2% for the second.

Going from `O=[N+]([O-])c1ccccc1S(=O)(=O)N1CCSSCC1` [10-N09, 5-(2-nitrobenzenesulfonyl)-1,2,5-dithiazepane] to `CCn1cc(S(=O)(=O)N2CCSSCC2)cn1` [10-N19, 5-[(1-ethyl-1H-pyrazol-4-yl)sulfonyl]-1,2,5-dithiazepane], the viability at 48 h, 25 µM falls from 117% to 109%.

First: N#CC(C(=O)CCl)=C1NC2=C(CCc3ccccc32)S1 [10-N10, 4-chloro-2-{1H,2H,4H,5H-naphtho[1,2-d][1,3]thiazol-2-ylidene}-3-oxobutanenitrile]
Second: N#CC(C(=O)CCl)=C1NC(=O)c2ccccc2N1 [10-P14, 4-chloro-3-oxo-2-(4-oxo-1,2,3,4-tetrahydroquinazolin-2-ylidene)butanenitrile]
The viability at 48 h, 25 µM of the first is lower: 12.3% for the first, 110% for the second.

Compared with `CCOC(=O)C(C#N)=Cc1ccc(N2C(=O)C=CC2=O)cc1` [10-N11, ethyl 2-cyano-3-[4-(2,5-dioxo-2,5-dihydro-1H-pyrrol-1-yl)phenyl]prop-2-enoate], `O=C1C=CC(=O)N1c1ccc(OC(F)F)cc1` [10-P11, 1-[4-(difluoromethoxy)phenyl]-2,5-dihydro-1H-pyrrole-2,5-dione] is higher in viability at 48 h, 25 µM: 93.1% for the first, 102% for the second.

Compared with `COCCn1c(N)c(C(=O)CCl)c(=O)[nH]c1=O` [10-N12, 6-amino-5-(2-chloroacetyl)-1-(2-methoxyethyl)-1,2,3,4-tetrahydropyrimidine-2,4-dione], `Nc1c(C(=O)CCl)c(=O)[nH]c(=O)n1C1CC1` [10-P06, 6-amino-5-(2-chloroacetyl)-1-cyclopropyl-1,2,3,4-tetrahydropyrimidine-2,4-dione] is higher in viability at 48 h, 25 µM: 103% for the first, 111% for the second.

Going from `Cc1cc(C(=O)CCl)c(C)n1-c1ccc(S(N)(=O)=O)cc1` [10-N14, 4-[3-(2-chloroacetyl)-2,5-dimethyl-1H-pyrrol-1-yl]benzene-1-sulfonamide] to `Cc1cc(C(=O)CCl)c(C)n1-c1ccc(C(C)(C)C)cc1` [10-N20, 1-[1-(4-tert-butylphenyl)-2,5-dimethyl-1H-pyrrol-3-yl]-2-chloroethan-1-one], the viability at 48 h, 25 µM falls from 85.8% to 0.606%.

First: COc1ccc(OC)c(N2C(=O)C=CC2=O)c1 [10-N15, 1-(2,5-dimethoxyphenyl)-2,5-dihydro-1H-pyrrole-2,5-dione]
Second: COc1ccc([N+](=O)[O-])cc1N1C(=O)C=CC1=O [10-P13, 1-(2-methoxy-5-nitrophenyl)-2,5-dihydro-1H-pyrrole-2,5-dione]
The viability at 48 h, 25 µM of the first is higher: 110% for the first, 102% for the second.

Going from `Cc1cc(C(=O)CCl)c(C)n1CCc1ccc(Cl)cc1` [10-N16, 2-chloro-1-{1-[2-(4-chlorophenyl)ethyl]-2,5-dimethyl-1H-pyrrol-3-yl}ethan-1-one] to `Cc1cc(C(=O)CCl)c(C)n1Cc1ccc(F)cc1` [10-N17, 2-chloro-1-{1-[(4-fluorophenyl)methyl]-2,5-dimethyl-1H-pyrrol-3-yl}ethan-1-one], the viability at 48 h, 25 µM rises from 0.625% to 6.45%.

Going from `Cc1cc(C(=O)CCl)c(C)n1-c1cccc(Cl)c1` [10-N18, 2-chloro-1-[1-(3-chlorophenyl)-2,5-dimethyl-1H-pyrrol-3-yl]ethan-1-one] to `Cc1cc(C(=O)CCl)c(C)n1Cc1ccccc1Cl` [10-P16, 2-chloro-1-{1-[(2-chlorophenyl)methyl]-2,5-dimethyl-1H-pyrrol-3-yl}ethan-1-one], the viability at 48 h, 25 µM rises from 0.68% to 0.942%.

First: CC1(C)C(=O)Nc2ccc(C(=O)CCl)cc21 [10-N21, 5-(2-chloroacetyl)-3,3-dimethyl-2,3-dihydro-1H-indol-2-one]
Second: CC(=O)NCCc1cc(C(=O)CCl)ccc1F [10-O05, N-{2-[5-(2-chloroacetyl)-2-fluorophenyl]ethyl}acetamide]
The viability at 48 h, 25 µM of the first is higher: 73.1% for the first, 37.8% for the second.

First: Cn1cc(C(=O)CCl)cc1C(=O)C(Cl)(Cl)Cl [10-N22, 2,2,2-trichloro-1-[4-(2-chloroacetyl)-1-methyl-1H-pyrrol-2-yl]ethan-1-one]
Second: O=C(CCl)c1ccoc1 [10-O09, 2-chloro-1-(furan-3-yl)ethan-1-one]
The viability at 48 h, 25 µM of the first is lower: 1.4% for the first, 76.8% for the second.

Going from `Cc1cc(C(=O)CCl)c(F)cc1F` [10-O03, 2-chloro-1-(2,4-difluoro-5-methylphenyl)ethan-1-one] to `O=C(CCl)Cc1ccc(F)c(F)c1` [10-O17, 1-chloro-3-(3,4-difluorophenyl)propan-2-one], the viability at 48 h, 25 µM rises from 2.01% to 28%.

Compared with `CC(Cl)C(=O)c1ccc(Cl)cc1` (centres unmarked) [10-O04, 2-chloro-1-(4-chlorophenyl)propan-1-one], `CC(Cl)C(=O)c1ccc2c(c1)NC(=O)CO2` (centres unmarked) [10-P12, 6-(2-chloropropanoyl)-3,4-dihydro-2H-1,4-benzoxazin-3-one] is lower in viability at 48 h, 25 µM: 106% for the first, 105% for the second.

First: O=C1C=CC(=O)N1c1cccc(O)c1 [10-O07, 1-(3-hydroxyphenyl)-2,5-dihydro-1H-pyrrole-2,5-dione]
Second: O=C1C=CC(=O)N1c1cccc([N+](=O)[O-])c1 [10-P15, 1-(3-nitrophenyl)-2,5-dihydro-1H-pyrrole-2,5-dione]
The viability at 48 h, 25 µM of the first is lower: 68.4% for the first, 92.8% for the second.

Compared with `N#CC(C(=O)CCl)=C1Nc2cc(Cl)ccc2S1` [10-O08, 4-chloro-2-(5-chloro-2,3-dihydro-1,3-benzothiazol-2-ylidene)-3-oxobutanenitrile], `O=C(CCl)c1c[nH]c2ccc(F)cc12` [10-O11, 2-chloro-1-(5-fluoro-1H-indol-3-yl)ethan-1-one] is lower in viability at 48 h, 25 µM: 101% for the first, 0.58% for the second.

Going from `COc1ccccc1N1C(=O)C=CC1=O` [10-O10, 1-(2-methoxyphenyl)-2,5-dihydro-1H-pyrrole-2,5-dione] to `Cc1ccc([N+](=O)[O-])cc1N1C(=O)C=CC1=O` [10-O14, 1-(2-methyl-5-nitrophenyl)-2,5-dihydro-1H-pyrrole-2,5-dione], the viability at 48 h, 25 µM rises from 57.5% to 67.2%.

First: Cc1ccc(CC(=O)CCl)cc1 [10-O13, 1-chloro-3-(4-methylphenyl)propan-2-one]
Second: O=C(CCl)Cc1c(F)cccc1F [10-O15, 1-chloro-3-(2,6-difluorophenyl)propan-2-one]
The viability at 48 h, 25 µM of the first is lower: 67.6% for the first, 95.8% for the second.

Compared with `Cc1nc(CNC(=O)N2CCSSCC2)cs1` [10-O18, N-[(2-methyl-1,3-thiazol-4-yl)methyl]-1,2,5-dithiazepane-5-carboxamide], `O=C(Nc1cccc(-c2nnco2)c1)N1CCSSCC1` [10-P09, N-[3-(1,3,4-oxadiazol-2-yl)phenyl]-1,2,5-dithiazepane-5-carboxamide] is higher in viability at 48 h, 25 µM: 112% for the first, 116% for the second.

Compared with `O=C1C=CC(=O)N1C1CNC1` [10-O19, 1-(azetidin-3-yl)-2,5-dihydro-1H-pyrrole-2,5-dione hydrochloride], `O=C1C=CC(=O)N1c1cnccn1` [10-P07, 1-(pyrazin-2-yl)-2,5-dihydro-1H-pyrrole-2,5-dione] is higher in viability at 48 h, 25 µM: 83.3% for the first, 103% for the second.

Compared with `c1ccc(CSSCc2ccccc2)cc1` [10-O21, [(benzyldisulfanyl)methyl]benzene], `CC(C)(C)C(=O)NCc1ccc(C(=O)CCl)s1` [10-P10, N-{[5-(2-chloroacetyl)thiophen-2-yl]methyl}-2,2-dimethylpropanamide] is lower in viability at 48 h, 25 µM: 100% for the first, 12.3% for the second.

Compared with `CC(=O)NCCc1ccc(C(=O)CCl)s1` [10-P03, N-{2-[5-(2-chloroacetyl)thiophen-2-yl]ethyl}acetamide], `Cn1c(N)c(N2C(=O)C=CC2=O)c(=O)[nH]c1=O` [10-P05, 6-amino-5-(2,5-dioxo-2,5-dihydro-1H-pyrrol-1-yl)-1-methyl-1,2,3,4-tetrahydropyrimidine-2,4-dione] is higher in viability at 48 h, 25 µM: 64.9% for the first, 124% for the second.
